Structures can show the parent of a compound that is named as a salt.
Experiments:
BCRP [1] = biological target: T1, BCRP (Homo sapiens, UniProt Q9UNQ0); details: estimated liver concentration divided by BCRP IC50 in MCF7/MX100 cells
T1 sequence (Q9UNQ0 1-655): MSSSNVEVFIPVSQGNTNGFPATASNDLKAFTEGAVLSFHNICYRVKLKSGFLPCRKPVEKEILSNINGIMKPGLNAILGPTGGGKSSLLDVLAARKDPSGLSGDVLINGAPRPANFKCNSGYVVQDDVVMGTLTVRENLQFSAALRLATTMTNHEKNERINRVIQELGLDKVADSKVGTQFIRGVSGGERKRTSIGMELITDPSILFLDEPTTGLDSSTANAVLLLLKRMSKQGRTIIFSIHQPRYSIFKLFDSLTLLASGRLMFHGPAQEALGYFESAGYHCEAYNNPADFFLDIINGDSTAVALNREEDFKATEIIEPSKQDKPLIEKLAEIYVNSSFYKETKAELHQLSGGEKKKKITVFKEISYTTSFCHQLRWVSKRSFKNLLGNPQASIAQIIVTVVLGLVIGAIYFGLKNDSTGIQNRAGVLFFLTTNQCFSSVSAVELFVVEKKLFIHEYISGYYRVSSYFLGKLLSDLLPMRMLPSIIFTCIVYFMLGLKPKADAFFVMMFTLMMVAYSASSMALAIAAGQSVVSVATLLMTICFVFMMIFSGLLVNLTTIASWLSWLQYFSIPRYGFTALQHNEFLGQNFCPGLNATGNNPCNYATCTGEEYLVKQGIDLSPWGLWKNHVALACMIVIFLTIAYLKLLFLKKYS

[2] = read-out: Cmax (mean maximal plasma concentration), patients, ref Aravagiri et al. 1998, Hiemke et al. 2004, Suzuki et al. 2001, Yeung et al. 1993; cited from earlier work
[3] = calculated from mean tissue to plasma AUC ratios; ref [16]; Aravagiri et al. 2002; Aravagiri et al. 1999; Manjunath and Venkateswarlu 2005; Hopenwasser et al. 2004; Sgaragli et al. 1995; Miyazaki et al. 1986; cited from earlier work
BCRP [4] = biological target: T1, BCRP; assay: cell-based

| SMILES | Cmax * liver:plasma partition ratio/IC50 (BCRP [1]) | Cmax [2] | Liver:plasma partition ratio [3] | IC50 (BCRP [4]) |
| --- | --- | --- | --- | --- |
| CN(C)CCCN1c2ccccc2Sc2ccc(Cl)cc21 [Chlorpromazine, chlorpromazine hydrochloride] | 0.6 | 300 nM | 97.7 ^9 | 52.2 µM |
| CN1CCN(C2=Nc3cc(Cl)ccc3Nc3ccccc32)CC1 [Clozapine, clozapine] | – | 2500 nM | – | 42 µM |
| O=C(CCCN1CCC(O)(c2ccc(Cl)cc2)CC1)c1ccc(F)cc1 [Haloperidol] | – | 50 nM | – | > 100 µM |
| Cc1cc2c(s1)Nc1ccccc1N=C2N1CCN(C)CC1 [Olanzapine] | – | 300 nM | – | – |
| Cc1nc2n(c(=O)c1CCN1CCC(c3noc4cc(F)ccc34)CC1)CCCC2O (stereo not drawn) [Paliperidone, 9-hydroxy-risperidone] | 0.5 | 400 nM | 67.5 ^5 | 51 µM |
| OCCOCCN1CCN(C2=Nc3ccccc3Sc3ccccc32)CC1 [Quetiapine, quetiapine] | 0.04–0.10 | 800 nM | 3.5–8.7 ^8 | 66.1 µM |
| Cc1nc2n(c(=O)c1CCN1CCC(c3noc4cc(F)ccc34)CC1)CCCC2 [Risperidone] | – | 400 nM | – | – |

From PMC2637613 (Basic & clinical pharmacology & toxicology, 2008)
